From BigSolDB 2.1

O=Cc1ccc(O)cc1
Conditions | solubility (mole fraction)
in 1,4-dioxane, 283.15 K | 0.0467
in 1,4-dioxane, 285.65 K | 0.0555
in 1,4-dioxane, 288.15 K | 0.0655
in 1,4-dioxane, 290.65 K | 0.0772
in 1,4-dioxane, 293.15 K | 0.0905
in 1,4-dioxane, 295.65 K | 0.106
in 1,4-dioxane, 298.15 K | 0.123
in 1,4-dioxane, 300.65 K | 0.141
in 1,4-dioxane, 303.15 K | 0.163
in 1,4-dioxane, 305.65 K | 0.186
in 1,4-dioxane, 308.15 K | 0.211
in 1,4-dioxane, 310.65 K | 0.238
in 1,4-dioxane, 313.15 K | 0.267
in 1,4-dioxane, 315.65 K | 0.299
in 1,4-dioxane, 318.15 K | 0.334
in 2-butanone, 278.15 K | 0.0731
in 2-butanone, 280.65 K | 0.0822
in 2-butanone, 283.15 K | 0.0911
in 2-butanone, 285.65 K | 0.101
in 2-butanone, 288.15 K | 0.111
in 2-butanone, 290.65 K | 0.123
in 2-butanone, 293.15 K | 0.135
in 2-butanone, 295.65 K | 0.148
in 2-butanone, 298.15 K | 0.163
in 2-butanone, 300.65 K | 0.177
in 2-butanone, 303.15 K | 0.194
in 2-butanone, 305.65 K | 0.21
in 2-butanone, 308.15 K | 0.229
in 2-butanone, 310.65 K | 0.247
in 2-butanone, 313.15 K | 0.267
in 2-butanone, 315.65 K | 0.288
in 2-butanone, 318.15 K | 0.309
in DMF, 278.15 K | 0.0741
in DMF, 280.65 K | 0.0863
in DMF, 283.15 K | 0.0997
in DMF, 285.65 K | 0.114
in DMF, 288.15 K | 0.131
in DMF, 290.65 K | 0.148
in DMF, 293.15 K | 0.168
in DMF, 295.65 K | 0.191
in DMF, 298.15 K | 0.214
in DMF, 300.65 K | 0.241
in DMF, 303.15 K | 0.27
in DMF, 305.65 K | 0.302
in DMF, 308.15 K | 0.338
in DMF, 310.65 K | 0.376
in DMF, 313.15 K | 0.416
in DMF, 315.65 K | 0.458
in DMF, 318.15 K | 0.504
in acetone, 278.15 K | 0.0713
in acetone, 280.65 K | 0.0796
in acetone, 283.15 K | 0.0889
in acetone, 285.65 K | 0.0986
in acetone, 288.15 K | 0.109
in acetone, 290.65 K | 0.12
in acetone, 293.15 K | 0.133
in acetone, 295.65 K | 0.145
in acetone, 298.15 K | 0.159
in acetone, 300.65 K | 0.174
in acetone, 303.15 K | 0.189
in acetone, 305.65 K | 0.205
in acetone, 308.15 K | 0.222
in acetone, 310.65 K | 0.24
in acetone, 313.15 K | 0.259
in acetone, 315.65 K | 0.279
in acetone, 318.15 K | 0.299
in acetonitrile, 278.15 K | 0.0318
in acetonitrile, 280.65 K | 0.036
in acetonitrile, 283.15 K | 0.0405
in acetonitrile, 285.65 K | 0.0454
in acetonitrile, 288.15 K | 0.0508
in acetonitrile, 290.65 K | 0.0567
in acetonitrile, 293.15 K | 0.0632
in acetonitrile, 295.65 K | 0.0704
in acetonitrile, 298.15 K | 0.0782
in acetonitrile, 300.65 K | 0.0867
in acetonitrile, 303.15 K | 0.0957
in acetonitrile, 305.65 K | 0.106
in acetonitrile, 308.15 K | 0.116
in acetonitrile, 310.65 K | 0.128
in acetonitrile, 313.15 K | 0.14
in acetonitrile, 315.65 K | 0.154
in acetonitrile, 318.15 K | 0.168
in ethanol, 278.15 K | 0.043
in ethanol, 280.65 K | 0.0493
in ethanol, 283.15 K | 0.0563
in ethanol, 285.65 K | 0.0639
in ethanol, 288.15 K | 0.0725
in ethanol, 290.65 K | 0.0815
in ethanol, 293.15 K | 0.0914
in ethanol, 295.65 K | 0.102
in ethanol, 298.15 K | 0.115
in ethanol, 300.65 K | 0.128
in ethanol, 303.15 K | 0.142
in ethanol, 305.65 K | 0.156
in ethanol, 308.15 K | 0.173
in ethanol, 310.65 K | 0.191
in ethanol, 313.15 K | 0.209
in ethanol, 315.65 K | 0.227
in ethanol, 318.15 K | 0.247
in ethyl acetate, 278.15 K | 0.0708
in ethyl acetate, 280.65 K | 0.0787
in ethyl acetate, 283.15 K | 0.0877
in ethyl acetate, 285.65 K | 0.0968
in ethyl acetate, 288.15 K | 0.106
in ethyl acetate, 290.65 K | 0.117
in ethyl acetate, 293.15 K | 0.129
in ethyl acetate, 295.65 K | 0.141
in ethyl acetate, 298.15 K | 0.155
in ethyl acetate, 300.65 K | 0.169
in ethyl acetate, 303.15 K | 0.184
in ethyl acetate, 305.65 K | 0.2
in ethyl acetate, 308.15 K | 0.216
in ethyl acetate, 310.65 K | 0.234
in ethyl acetate, 313.15 K | 0.251
in ethyl acetate, 315.65 K | 0.272
in ethyl acetate, 318.15 K | 0.293
in isopropanol, 278.15 K | 0.0535
in isopropanol, 280.65 K | 0.0607
in isopropanol, 283.15 K | 0.0683
in isopropanol, 285.65 K | 0.0773
in isopropanol, 288.15 K | 0.0868
in isopropanol, 290.65 K | 0.0972
in isopropanol, 293.15 K | 0.109
in isopropanol, 295.65 K | 0.121
in isopropanol, 298.15 K | 0.134
in isopropanol, 300.65 K | 0.148
in isopropanol, 303.15 K | 0.164
in isopropanol, 305.65 K | 0.18
in isopropanol, 308.15 K | 0.198
in isopropanol, 310.65 K | 0.218
in isopropanol, 313.15 K | 0.238
in isopropanol, 315.65 K | 0.259
in isopropanol, 318.15 K | 0.281
in methanol, 278.15 K | 0.0342
in methanol, 280.65 K | 0.0392
in methanol, 283.15 K | 0.0449
in methanol, 285.65 K | 0.0516
in methanol, 288.15 K | 0.0587
in methanol, 290.65 K | 0.0668
in methanol, 293.15 K | 0.076
in methanol, 295.65 K | 0.0858
in methanol, 298.15 K | 0.0969
in methanol, 300.65 K | 0.109
in methanol, 303.15 K | 0.121
in methanol, 305.65 K | 0.136
in methanol, 308.15 K | 0.151
in methanol, 310.65 K | 0.168
in methanol, 313.15 K | 0.186
in methanol, 315.65 K | 0.205
in methanol, 318.15 K | 0.224
in n-butanol, 278.15 K | 0.0545
in n-butanol, 280.65 K | 0.0615
in n-butanol, 283.15 K | 0.0692
in n-butanol, 285.65 K | 0.0775
in n-butanol, 288.15 K | 0.0864
in n-butanol, 290.65 K | 0.0963
in n-butanol, 293.15 K | 0.107
in n-butanol, 295.65 K | 0.118
in n-butanol, 298.15 K | 0.13
in n-butanol, 300.65 K | 0.143
in n-butanol, 303.15 K | 0.157
in n-butanol, 305.65 K | 0.171
in n-butanol, 308.15 K | 0.187
in n-butanol, 310.65 K | 0.203
in n-butanol, 313.15 K | 0.22
in n-butanol, 315.65 K | 0.239
in n-butanol, 318.15 K | 0.259
in n-propanol, 278.15 K | 0.0532
in n-propanol, 280.65 K | 0.0597
in n-propanol, 283.15 K | 0.0669
in n-propanol, 285.65 K | 0.0751
in n-propanol, 288.15 K | 0.0836
in n-propanol, 290.65 K | 0.093
in n-propanol, 293.15 K | 0.103
in n-propanol, 295.65 K | 0.114
in n-propanol, 298.15 K | 0.125
in n-propanol, 300.65 K | 0.138
in n-propanol, 303.15 K | 0.151
in n-propanol, 305.65 K | 0.165
in n-propanol, 308.15 K | 0.18
in n-propanol, 310.65 K | 0.196
in n-propanol, 313.15 K | 0.213
in n-propanol, 315.65 K | 0.23
in n-propanol, 318.15 K | 0.249
in toluene, 278.15 K | 0.000979
in toluene, 280.65 K | 0.00109
in toluene, 283.15 K | 0.00119
in toluene, 285.65 K | 0.00133
in toluene, 288.15 K | 0.00146
in toluene, 290.65 K | 0.00162
in toluene, 293.15 K | 0.00178
in toluene, 295.65 K | 0.00197
in toluene, 298.15 K | 0.00217
in toluene, 300.65 K | 0.00236
in toluene, 303.15 K | 0.00259
in toluene, 305.65 K | 0.00283
in toluene, 308.15 K | 0.00309
in toluene, 310.65 K | 0.0034
in toluene, 313.15 K | 0.00367
in toluene, 315.65 K | 0.00399
in toluene, 318.15 K | 0.00435
